# Test system: 817829-284-R-J1-PDC complex spheroids, viability
# Assay: Anticancer human tumor 817829-284-R-J1-PDC patient-derived colon adenocarcinoma cell line growth inhibition [CLK]
# Details: second compound 0.0316 µM; first compound 3.16 µM; active compounds read low
# Outline: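 Multi-cell-type spheroids combined patient-derived tumor cells with HUVEC endothelial cells and human mesenchymal stem cells. Paired agents were dosed in half-log steps down from about clinical Cmax, or from 10 microM where Cmax was unknown.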
# 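Further: spheroids exposed to the agents for seven days before readout.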
row,Compound,"viability, T/C"
1,C=CC(=O)N1CCN(c2nc(=O)n(-c3c(C)ccnc3C(C)C)c3nc(-c4c(O)cccc4F)c(F)cc23)C(C)C1 (stereo unspecified) + CNC(=O)c1ccc(Nc2nc(OC3CCCC3)c3c(-c4ccc5nc(C)oc5c4)c[nH]c3n2)c(OC)c1,25.9%
2,CCCS(=O)(=O)Nc1ccc(F)c(C(=O)c2c[nH]c3ncc(-c4ccc(Cl)cc4)cc23)c1F + CNC(=O)c1ccc(Nc2nc(OC3CCCC3)c3c(-c4ccc5nc(C)oc5c4)c[nH]c3n2)c(OC)c1,33%
3,COC1C=CCC(C)C(C)S(=O)(=O)NC(=O)c2ccc3c(c2)N(CC2CCC21)CC1(CCCc2cc(Cl)ccc21)CO3 (stereo unspecified) + CNC(=O)c1ccc(Nc2nc(OC3CCCC3)c3c(-c4ccc5nc(C)oc5c4)c[nH]c3n2)c(OC)c1,45.3%

# Same assay, conditions: second compound 0.0316 µM; first compound 10 µM; active compounds read low
row,Compound,"viability, T/C"
1,C#Cc1c(F)ccc2cc(O)cc(-c3ncc4c(N5CC6CCC(C5)N6)nc(OCC56CCCN5CC(F)C6)nc4c3F)c12 (stereo unspecified) + CNC(=O)c1ccc(Nc2nc(OC3CCCC3)c3c(-c4ccc5nc(C)oc5c4)c[nH]c3n2)c(OC)c1,17.7%
2,C=C(F)C(=O)N1CCN(c2nc(OCC3CCCN3C)nc3c2CCN(c2cccc4cccc(Cl)c24)C3)CC1CC#N (stereo unspecified) + CNC(=O)c1ccc(Nc2nc(OC3CCCC3)c3c(-c4ccc5nc(C)oc5c4)c[nH]c3n2)c(OC)c1,0.08%
3,C=CC(=O)N1CCN(c2nc(=O)n(-c3c(C)ccnc3C(C)C)c3nc(-c4c(O)cccc4F)c(F)cc23)C(C)C1 (stereo unspecified) + CNC(=O)c1ccc(Nc2nc(OC3CCCC3)c3c(-c4ccc5nc(C)oc5c4)c[nH]c3n2)c(OC)c1,15%
4,CCCS(=O)(=O)Nc1ccc(F)c(C(=O)c2c[nH]c3ncc(-c4ccc(Cl)cc4)cc23)c1F + CNC(=O)c1ccc(Nc2nc(OC3CCCC3)c3c(-c4ccc5nc(C)oc5c4)c[nH]c3n2)c(OC)c1,10.1%
5,COC1C=CCC(C)C(C)S(=O)(=O)NC(=O)c2ccc3c(c2)N(CC2CCC21)CC1(CCCc2cc(Cl)ccc21)CO3 (stereo unspecified) + CNC(=O)c1ccc(Nc2nc(OC3CCCC3)c3c(-c4ccc5nc(C)oc5c4)c[nH]c3n2)c(OC)c1,4.06%

# Same assay, conditions: second compound 0.1 µM; first compound 0.0316 µM; active compounds read low
row,Compound,"viability, T/C"
1,C#Cc1c(F)ccc2cc(O)cc(-c3ncc4c(N5CC6CCC(C5)N6)nc(OCC56CCCN5CC(F)C6)nc4c3F)c12 (stereo unspecified) + CNC(=O)c1ccc(Nc2nc(OC3CCCC3)c3c(-c4ccc5nc(C)oc5c4)c[nH]c3n2)c(OC)c1,27%
2,C=C(F)C(=O)N1CCN(c2nc(OCC3CCCN3C)nc3c2CCN(c2cccc4cccc(Cl)c24)C3)CC1CC#N (stereo unspecified) + CNC(=O)c1ccc(Nc2nc(OC3CCCC3)c3c(-c4ccc5nc(C)oc5c4)c[nH]c3n2)c(OC)c1,34.9%
3,C=CC(=O)N1CCN(c2nc(=O)n(-c3c(C)ccnc3C(C)C)c3nc(-c4c(O)cccc4F)c(F)cc23)C(C)C1 (stereo unspecified) + CNC(=O)c1ccc(Nc2nc(OC3CCCC3)c3c(-c4ccc5nc(C)oc5c4)c[nH]c3n2)c(OC)c1,30.9%
4,CCCS(=O)(=O)Nc1ccc(F)c(C(=O)c2c[nH]c3ncc(-c4ccc(Cl)cc4)cc23)c1F + CNC(=O)c1ccc(Nc2nc(OC3CCCC3)c3c(-c4ccc5nc(C)oc5c4)c[nH]c3n2)c(OC)c1,19.1%
5,COC1C=CCC(C)C(C)S(=O)(=O)NC(=O)c2ccc3c(c2)N(CC2CCC21)CC1(CCCc2cc(Cl)ccc21)CO3 (stereo unspecified) + CNC(=O)c1ccc(Nc2nc(OC3CCCC3)c3c(-c4ccc5nc(C)oc5c4)c[nH]c3n2)c(OC)c1,27.3%

# Same assay, conditions: second compound 0.1 µM; first compound 0.1 µM; active compounds read low
row,Compound,"viability, T/C"
1,C#Cc1c(F)ccc2cc(O)cc(-c3ncc4c(N5CC6CCC(C5)N6)nc(OCC56CCCN5CC(F)C6)nc4c3F)c12 (stereo unspecified) + CNC(=O)c1ccc(Nc2nc(OC3CCCC3)c3c(-c4ccc5nc(C)oc5c4)c[nH]c3n2)c(OC)c1,26.2%
2,C=C(F)C(=O)N1CCN(c2nc(OCC3CCCN3C)nc3c2CCN(c2cccc4cccc(Cl)c24)C3)CC1CC#N (stereo unspecified) + CNC(=O)c1ccc(Nc2nc(OC3CCCC3)c3c(-c4ccc5nc(C)oc5c4)c[nH]c3n2)c(OC)c1,23%
3,C=CC(=O)N1CCN(c2nc(=O)n(-c3c(C)ccnc3C(C)C)c3nc(-c4c(O)cccc4F)c(F)cc23)C(C)C1 (stereo unspecified) + CNC(=O)c1ccc(Nc2nc(OC3CCCC3)c3c(-c4ccc5nc(C)oc5c4)c[nH]c3n2)c(OC)c1,22.7%
4,CCCS(=O)(=O)Nc1ccc(F)c(C(=O)c2c[nH]c3ncc(-c4ccc(Cl)cc4)cc23)c1F + CNC(=O)c1ccc(Nc2nc(OC3CCCC3)c3c(-c4ccc5nc(C)oc5c4)c[nH]c3n2)c(OC)c1,16.2%
5,COC1C=CCC(C)C(C)S(=O)(=O)NC(=O)c2ccc3c(c2)N(CC2CCC21)CC1(CCCc2cc(Cl)ccc21)CO3 (stereo unspecified) + CNC(=O)c1ccc(Nc2nc(OC3CCCC3)c3c(-c4ccc5nc(C)oc5c4)c[nH]c3n2)c(OC)c1,26.5%

# Same assay, conditions: second compound 0.1 µM; first compound 0.316 µM; active compounds read low
row,Compound,"viability, T/C"
1,C#Cc1c(F)ccc2cc(O)cc(-c3ncc4c(N5CC6CCC(C5)N6)nc(OCC56CCCN5CC(F)C6)nc4c3F)c12 (stereo unspecified) + CNC(=O)c1ccc(Nc2nc(OC3CCCC3)c3c(-c4ccc5nc(C)oc5c4)c[nH]c3n2)c(OC)c1,22.1%
2,C=C(F)C(=O)N1CCN(c2nc(OCC3CCCN3C)nc3c2CCN(c2cccc4cccc(Cl)c24)C3)CC1CC#N (stereo unspecified) + CNC(=O)c1ccc(Nc2nc(OC3CCCC3)c3c(-c4ccc5nc(C)oc5c4)c[nH]c3n2)c(OC)c1,26.5%
3,C=CC(=O)N1CCN(c2nc(=O)n(-c3c(C)ccnc3C(C)C)c3nc(-c4c(O)cccc4F)c(F)cc23)C(C)C1 (stereo unspecified) + CNC(=O)c1ccc(Nc2nc(OC3CCCC3)c3c(-c4ccc5nc(C)oc5c4)c[nH]c3n2)c(OC)c1,30.4%
4,CCCS(=O)(=O)Nc1ccc(F)c(C(=O)c2c[nH]c3ncc(-c4ccc(Cl)cc4)cc23)c1F + CNC(=O)c1ccc(Nc2nc(OC3CCCC3)c3c(-c4ccc5nc(C)oc5c4)c[nH]c3n2)c(OC)c1,16.2%
5,COC1C=CCC(C)C(C)S(=O)(=O)NC(=O)c2ccc3c(c2)N(CC2CCC21)CC1(CCCc2cc(Cl)ccc21)CO3 (stereo unspecified) + CNC(=O)c1ccc(Nc2nc(OC3CCCC3)c3c(-c4ccc5nc(C)oc5c4)c[nH]c3n2)c(OC)c1,18.7%

# Same assay, conditions: second compound 0.1 µM; first compound 1 µM; active compounds read low
row,Compound,"viability, T/C"
1,C#Cc1c(F)ccc2cc(O)cc(-c3ncc4c(N5CC6CCC(C5)N6)nc(OCC56CCCN5CC(F)C6)nc4c3F)c12 (stereo unspecified) + CNC(=O)c1ccc(Nc2nc(OC3CCCC3)c3c(-c4ccc5nc(C)oc5c4)c[nH]c3n2)c(OC)c1,29.4%
2,C=C(F)C(=O)N1CCN(c2nc(OCC3CCCN3C)nc3c2CCN(c2cccc4cccc(Cl)c24)C3)CC1CC#N (stereo unspecified) + CNC(=O)c1ccc(Nc2nc(OC3CCCC3)c3c(-c4ccc5nc(C)oc5c4)c[nH]c3n2)c(OC)c1,23.6%
3,C=CC(=O)N1CCN(c2nc(=O)n(-c3c(C)ccnc3C(C)C)c3nc(-c4c(O)cccc4F)c(F)cc23)C(C)C1 (stereo unspecified) + CNC(=O)c1ccc(Nc2nc(OC3CCCC3)c3c(-c4ccc5nc(C)oc5c4)c[nH]c3n2)c(OC)c1,25.1%

# — PubChem BioAssay AID2060599 (Molecular Pharmacology Branch, DTP, NCI, 2025)
